Results reported in BindingDB's records for doi:10.1021/jm8005838 (Cephalon, 2008).

Molecular target: Vascular endothelial growth factor receptor 2 (Homo sapiens, UniProt P35968)
Experiment: VEGF-R2 Receptor-Linked Tyrosine Kinase Assay
Description: Compounds were evaluated for their ability to inhibit the kinase activity using an ELISA-based assay. The 96-well microtiter plate is coated with substrate solution. The reaction is initiated by adding recombinant human VEGF-R2 to reaction mixture containing inhibitor compound. After the incubation, the detection antibody, Eu-N1 antiphosphotyrosine (PT66) antibody, was added, and the fluorescence of the resulting solution was measured using the Victor Multilabel Counter.

Sequence of Vascular endothelial growth factor receptor 2 (P35968 whole entry): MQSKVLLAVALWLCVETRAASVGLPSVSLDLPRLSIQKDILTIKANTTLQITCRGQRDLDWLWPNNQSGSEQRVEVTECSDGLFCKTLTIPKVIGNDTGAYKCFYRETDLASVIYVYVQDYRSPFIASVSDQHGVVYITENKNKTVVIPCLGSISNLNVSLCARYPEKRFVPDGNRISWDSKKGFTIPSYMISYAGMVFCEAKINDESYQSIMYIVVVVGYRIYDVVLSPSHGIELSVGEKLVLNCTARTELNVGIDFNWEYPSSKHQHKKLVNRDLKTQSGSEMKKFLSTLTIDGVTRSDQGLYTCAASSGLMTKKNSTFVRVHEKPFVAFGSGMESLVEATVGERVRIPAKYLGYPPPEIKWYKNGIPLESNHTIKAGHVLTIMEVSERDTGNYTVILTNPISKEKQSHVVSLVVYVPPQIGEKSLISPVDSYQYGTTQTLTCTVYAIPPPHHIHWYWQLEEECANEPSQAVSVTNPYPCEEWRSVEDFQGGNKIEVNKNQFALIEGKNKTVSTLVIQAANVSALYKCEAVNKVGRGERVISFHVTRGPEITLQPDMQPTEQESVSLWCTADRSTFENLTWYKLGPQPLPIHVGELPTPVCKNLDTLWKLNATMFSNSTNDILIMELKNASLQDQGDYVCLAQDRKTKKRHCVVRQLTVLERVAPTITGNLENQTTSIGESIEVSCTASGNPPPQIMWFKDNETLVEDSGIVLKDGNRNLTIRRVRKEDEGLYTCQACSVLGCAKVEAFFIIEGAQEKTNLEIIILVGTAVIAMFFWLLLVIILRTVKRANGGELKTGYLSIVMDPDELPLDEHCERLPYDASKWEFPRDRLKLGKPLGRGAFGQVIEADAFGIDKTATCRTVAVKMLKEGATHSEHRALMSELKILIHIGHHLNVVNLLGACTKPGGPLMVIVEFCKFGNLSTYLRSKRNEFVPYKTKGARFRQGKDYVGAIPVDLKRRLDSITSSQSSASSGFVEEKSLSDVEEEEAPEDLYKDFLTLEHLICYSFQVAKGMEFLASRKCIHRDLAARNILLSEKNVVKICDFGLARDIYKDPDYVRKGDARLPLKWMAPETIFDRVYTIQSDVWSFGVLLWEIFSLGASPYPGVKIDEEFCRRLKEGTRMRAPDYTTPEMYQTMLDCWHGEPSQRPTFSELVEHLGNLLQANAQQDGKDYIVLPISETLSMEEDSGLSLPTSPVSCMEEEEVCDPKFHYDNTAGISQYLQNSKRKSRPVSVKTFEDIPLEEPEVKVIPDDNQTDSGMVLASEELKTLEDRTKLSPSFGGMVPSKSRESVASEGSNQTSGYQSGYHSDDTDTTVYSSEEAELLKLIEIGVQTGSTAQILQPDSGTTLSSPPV

| IC50 [µM] | Structure (SMILES) |
| --- | --- |
| 3.38 | CC(C)Oc1ccc2c(c1)CCc1c-2c2c(c3c4ccccc4n(CCO)c13)CNC2=O [3-(2-hydroxyethyl)-20-(propan-2-yloxy)-3,13-diazahexacyclo[14.8.0.0^{2,10}.0^{4,9}.0^{11,15}.0^{17,22}]tetracosa-1(16),2(10),4(9),5,7,11(15),17(22),18,20-nonaen-14-one] |
| 4.72 | COc1ccc2c(c1)CCc1c-2c2c(c3c4ccccc4n(CCO)c13)CNC2=O [3-(2-hydroxyethyl)-20-methoxy-3,13-diazahexacyclo[14.8.0.0^{2,10}.0^{4,9}.0^{11,15}.0^{17,22}]tetracosa-1(16),2(10),4(9),5,7,11(15),17(22),18,20-nonaen-14-one] |
